Data on one compound can be found in patent US20050042180A1, “Powder formulation containing the CGRP antagonist 1 [N2-[3,5-dibromo-N-[[4-(3,4-dihydro-2 (1H)-oxoquinazolin-3-yl)-1-piperidinyl]carbonyl]-D-tyrosyl]-L-lysyl]-4-(4-pyridinyl)-piperazin, process for preparing and the use thereof as inhalation powder” (Boehringer Ingelheim International GmbH, priority 2003, published 2005).

Structures are written as SMILES.

Data set [1] is described as follows: Bioavailability after administration by inhalation as powder inhalant. Conditions: in vivo, inhaled or intranasal; administered by inhalation as powder inhalant; based on the fine content of the formulation (FPD, USP 24 Suppl. 2000).
For data set [2] the following is noted: conventional formulations; cited from earlier work.

By bioavailability is commonly meant dose-corrected exposure relative to a reference, in per cent. For the compound `NCCCC[C@H](NC(=O)[C@@H](Cc1cc(Br)c(O)c(Br)c1)NC(=O)N1CCC(N2Cc3ccccc3NC2=O)CC1)C(=O)N1CCN(c2ccncc2)CC1` [A, 1-[N^2-[3,5-dibromo-N-[[4-(3,4-dihydro-2(1H)-oxoquinazolin-3-yl)-1-piperidinyl]carbonyl]-D-tyrosyl]-L-lysyl]-4-(4-pyridinyl)-piperazine], the bioavailability in data set [1] is approximately 60%. Also, the oral bioavailability result in data set [2] is on record as “very limited”.
